Measurements as given in patent US10167296B2, “Sulfoximine substituted quinazolines for pharmaceutical compositions” (EVOTEC INTERNATIONAL GMBH, priority 2014, dated 2019).

What was measured:
[1] = molecular target: MNK2a (pre-activated GST-MNK2a) (Homo sapiens (Human), UniProt Q9HBH9); assay: MNK2a in vitro kinase assay (assay 1), ADP-Glo; format: biochemical; conditions: read-out: Mnk2 IC50
Protocol: A. MNK2a In Vitro Kinase Assay (Assay 1)
The inhibition of kinase activity of MNK2a was assessed using pre-activated GST-MNK2a. The white, 384-well OptiPlate F plates were purchased from PerkinElmer. The ADP-Glo Kinase Assay (including ultra pure ATP) was purchased from Promega (V9103). Activated MNK2a was obtained as described in WO2011/104340. […] ID No. 5 of WO 2011/104340 by the C-terminal —CONH2 group, was purchased from Thermo Fisher Scientific. All other materials were of highest grade commercially available. Compounds are tested in either serial dilutions or single dose concentrations. The compound stock solutions are 10 mM in 100% DMSO The serial compound dilutions are prepared in 100% DMSO followed by 1:27.3 intermediate dilution in assay buffer. The final DMSO concentration in assay will be <3%.
In the 384-well plates 3 μl of test compound from the intermediate dilution is mixed with 4 μl of the activated MNK2 enzyme (final concentration of 10 nM) and 4 μl of the peptide (final concentration of 25 μM)/ultra pure ATP (final concentration of 20 μM), all dissolved in assay buffer. This step is followed by an incubation time of 90 min, then 10 μl of ADP Glo reagent are added, followed by 40 min of incubation. Then 20 μl of kinase detection reagent are admixed. The plates are sealed and after an incubation period of 30 min, the luminescence signal is measured in an Envision reader to determine the amount of produced ADP. All incubation steps are performed at room temperature.
The assay buffer consists of 20 mM HEPES, 2 mM DTT, 0.01% BSA, 20 mM MgCl2 and 0.1% Pluronic F-127.
The luminescent signal generated is proportional to the ADP concentration produced and is correlated with activated MNK2 activity. The analysis of the data is performed by the calculation of the percentage of ATP consumption of activated MNK2 in the presence of the test compound compared to the consumption of ATP in the presence of activated MNK2 without compound. (RLU(sample)−RLU(low control))*100/(RLU(high value)−RLU(low control))
[RLU=Relative Luminescence Units]
Values of more than 100% CTL are normally related to compound/sample specific physico-chemical properties (e.g. solubility, light absorbance, fluorescence).
IC50 values based on dose response curves are calculated with the AssayExplorer software.

[2] = molecular target: MNK1a (pre-activated GST-MNK1a) (Homo sapiens (Human), UniProt Q9BUB5); assay: MNK1 in vitro kinase assay (assay 2), Z'-LYTE; format: biochemical; conditions: for inhibition at 1 µM: compound concentration of 1 μM, read-out: Mnk1 % Inh
Chain of MNK1a (pre-activated GST-MNK1a) (Q9BUB5 other isoform, or with tags, fused parts or gaps): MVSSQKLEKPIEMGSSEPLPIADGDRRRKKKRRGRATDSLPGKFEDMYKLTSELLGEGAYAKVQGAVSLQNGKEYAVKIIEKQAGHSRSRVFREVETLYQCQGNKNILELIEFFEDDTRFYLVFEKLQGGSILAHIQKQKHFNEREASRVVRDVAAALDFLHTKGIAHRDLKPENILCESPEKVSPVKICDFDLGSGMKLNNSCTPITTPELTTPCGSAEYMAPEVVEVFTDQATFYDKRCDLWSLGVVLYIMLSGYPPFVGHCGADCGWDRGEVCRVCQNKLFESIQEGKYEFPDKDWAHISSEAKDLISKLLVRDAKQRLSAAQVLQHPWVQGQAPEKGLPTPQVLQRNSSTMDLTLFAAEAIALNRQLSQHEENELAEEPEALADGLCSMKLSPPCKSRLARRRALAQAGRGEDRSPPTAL
From the text: B. MNK1 In Vitro Kinase Assay (Assay 2)
MNK1 Data can be obtained from the MNK1 Z′-LYTE® assay. The MNK1 Z′-LYTE® screening protocol and assay conditions are also described on www.invitrogen.com.
The assay is described as follows:
The Z′-LYTE® biochemical assay employs a fluorescence-based, coupled-enzyme format and is based on the differential sensitivity of phosphorylated and non-phosphorylated peptides to proteolytic cleavage. The peptide substrate is labeled with two fluorophores—one at each end—that make up a FRET pair.
In the primary reaction, the kinase transfers the gamma-phosphate of ATP to a single tyrosine, serine or threonine residue in a synthetic FRET-peptide. In the secondary reaction, a site-specific protease recognizes and cleaves non-phosphorylated FRET-peptides. Phosphorylation of FRET-peptides suppresses cleavage by the Development Reagent. Cleavage disrupts FRET between the donor (i.e., coumarin) and acceptor (i.e., fluorescein) fluorophores on the FRET-peptide, whereas uncleaved, phosphorylated FRET-peptides maintain FRET. A ratiometric method, which calculates the ratio (the Emission Ratio) of donor emission to acceptor emission after excitation of the donor fluorophore at 400 nm, is used to quantitate reaction progress, as shown in the equation below. Emission Ratio=Coumarin Emission(445 nm)/Fluorescein Emission(520 nm)
The inhibition of kinase activity of MNK1a was assessed using pre-activated GST-MNK1a. The 2×MKNK1 (MNK1) mixture is prepared in 50 mM HEPES pH 7.5, 0.01% BRIJ-35, 10 mM MgCl2, 4 mM MnCl2, 1 mM EGTA, 2 mM DTT. The final 10 μL Kinase Reaction consists of 13.5-54 ng MKNK1 (MNK1) and 2 μM Ser/Thr 07 in 50 mM HEPES pH 7.5, 0.01% BRIJ-35, 10 mM MgCl2, 2 mM MnCl2, 1 mM EGTA, 1 mM DTT. After the 1 hour Kinase Reaction incubation, 5 μL of a 1:32768 dilution of Development Reagent A is added.
The Test Compounds are screened in 1% DMSO (final) in the well.
All Peptide/Kinase Mixtures are diluted to a 2×working concentration in the MNK1 Kinase Buffer.
All ATP Solutions are diluted to a 4×working concentration in Kinase Buffer (50 mM HEPES pH 7.5, 0.01% BRIJ-35, 10 mM MgCl2, 1 mM EGTA).
Development Reagent Solution:
The Development Reagent is diluted in Development Buffer
Bar-coded Corning, low volume NBS, 384-well plate (Corning Cat. #3676)
1. 2.5 μL—4×Test Compound
2. 5 μL—2×Peptide/Kinase Mixture
5. 60-minute Kinase Reaction incubation at room temperature
6. 5 μL—Development Reagent Solution
8. 60-minute Development Reaction incubation at room temperature
9. Read on fluorescence plate reader and analyze the data
The following equations are used for each set of data points:
Correction for Background Fluorescence: FISample−FITCFI Ctl Emission Ratio (using values corrected for background fluorescence):Coumarin Emission (445 nm)/Fluorescein Emission (520 nm)
% Phosphorylation (% Phos): 1−((Emission Ratio×F100%)−C100%)/((C0%−C100%)+[Emission Ratio×(F100%−F0%)])*100
% Inhibition: 1−(% PhosSample/% Phos0% Inhibition Ctl)*100 FI=Fluorescence Intensity C100%=Average Coumarin emission signal of the 100% Phos. Control C0%=Average Coumarin emission signal of the 0% Phos. Control F100%=Average Fluorescein emission signal of the 100% Phos. Control F0%=Average Fluorescein emission signal of the 0% Phos. Control
SelectScreen® Kinase Profiling Service uses XLfit from IDBS. The dose response curve is curve fit to model number 205 (sigmoidal dose-response model).

Chain of MNK2a (pre-activated GST-MNK2a) (Q9HBH9 whole entry): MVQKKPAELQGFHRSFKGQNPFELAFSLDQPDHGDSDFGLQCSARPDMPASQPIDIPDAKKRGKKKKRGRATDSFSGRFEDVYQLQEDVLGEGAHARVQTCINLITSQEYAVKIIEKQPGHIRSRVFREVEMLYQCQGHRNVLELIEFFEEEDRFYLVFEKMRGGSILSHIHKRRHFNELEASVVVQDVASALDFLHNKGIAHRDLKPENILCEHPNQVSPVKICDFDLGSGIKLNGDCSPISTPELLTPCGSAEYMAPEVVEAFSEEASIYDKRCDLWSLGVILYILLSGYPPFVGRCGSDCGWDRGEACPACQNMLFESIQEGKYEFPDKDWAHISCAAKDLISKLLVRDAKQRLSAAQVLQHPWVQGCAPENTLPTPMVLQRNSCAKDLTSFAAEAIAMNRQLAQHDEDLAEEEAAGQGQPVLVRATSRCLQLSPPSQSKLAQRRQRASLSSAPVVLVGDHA

SMILES	IC50 [1]	IC50 [2]	inhibition at 1 µM [2]
COc1c(N=S(C)(C)=O)cc2ncnc(Nc3ccc(F)cc3O[C@@H]3CO[C@H]4[C@@H]3OC[C@H]4OC)c2c1C [Example 2.45]	1.7 nM	17 nM	
COc1c(N=S(C)(C)=O)cc2ncnc(Nc3ccc(F)cc3O[C@H]3COC[C@@H]3O)c2c1C [Example 2.38]	2 nM	55 nM	
COc1c(N=S2(=O)CCC2)cc2ncnc(Nc3cc4cn[nH]c4cc3OC(C)C)c2c1C [Example 2.27]	3.9 nM	87 nM	
COc1c(N=S(C)(C)=O)cc2ncnc(Nc3cccnc3O[C@@H]3CO[C@@H]4CCO[C@@H]43)c2c1C [Example 2.49]	2.3 nM		95%
COc1c(N=S(C)(C)=O)cc2ncnc(Nc3ccc(F)cc3O[C@H](C)C(=O)NCC(F)(F)F)c2c1C [Example 2.24]	4.4 nM		100%
Cc1c(OC2CCOC2)c(N=S(C)(C)=O)cc2ncnc(Nc3ccc(F)cc3O[C@H](C)C(F)(F)F)c12 (stereo partly shown) [Example 3.04]	2.1 nM	118 nM	
COc1c(N=S2(=O)CCC2)cc2ncnc(Nc3ccc(F)cc3O[C@@H]3CO[C@H]4[C@@H]3OC[C@H]4OC)c2c1Cl [Example 2.18]	1.3 nM		95%
COc1c(N=S(C)(C)=O)cc2ncnc(Nc3ccc(F)cc3OC3CCOCC3)c2c1C [Example 2.14]	3.7 nM		98%
COc1c(N=S(C)(C)=O)cc2ncnc(Nc3ccc(F)cc3O[C@@H]3CO[C@@H]4CCO[C@@H]43)c2c1Cl [Example 2.40]	1.3 nM	16 nM	
COc1c(N=S2(=O)CCNCC2)cc2ncnc(Nc3ccc(F)cc3O[C@@H]3CO[C@@H]4CCO[C@@H]43)c2c1C [Example 2.30]	1.3 nM		105%
COc1c(N=S(C)(C)=O)cc2ncnc(Nc3ccc(F)cc3O[C@@H]3CO[C@@H]4CCO[C@@H]43)c2c1C [Example 2.25]	0.8 nM	18 nM	
COc1c(N=S2(=O)CCCC2)cc2ncnc(Nc3ccc(F)cc3O[C@H]3CCOC3)c2c1C [Example 2.48]	1.3 nM	22 nM	
COc1c(N=S2(=O)CC(OC)C2)cc2ncnc(Nc3ccc(F)cc3O[C@H](C)C(=O)NCC(F)(F)F)c2c1C (stereo partly shown) [Example 2.01]	2.5 nM		103%
COc1c(N=S(C)(=O)C2CC2)cc2ncnc(Nc3ccc(F)cc3O[C@@H]3CO[C@@H]4CCO[C@@H]43)c2c1C (stereo partly shown) [Example 2.43]	2.3 nM		97%
COc1c(N=S2(=O)CCC2)cc2ncnc(Nc3ccc(Cl)cc3O[C@H](C)C(=O)NCC(F)(F)F)c2c1C [Example 2.39]	2.4 nM	66 nM	
COc1c(N=S(C)(C)=O)cc2ncnc(Nc3ccc(F)cc3O[C@H]3CC[C@H](O)CC3)c2c1C [Example 2.22]	2.5 nM		98%

SMILES	IC50 [1]	IC50 [2]	inhibition at 1 µM [2]
COc1c(N=S2(=O)CCC2)cc2ncnc(Nc3ccc(F)cc3O[C@H](C)C(=O)NCC(F)(F)F)c2c1C [Example 2.11]	1.9 nM	56 nM	
COc1c(N=S2(=O)CCCC2)cc2ncnc(Nc3ccc(F)cc3O[C@H](C)C(=O)N[C@@H](C)C(F)(F)F)c2c1C [Example 2.05]	2.5 nM		106%
COc1c(N=S2(=O)CCCC2)cc2ncnc(Nc3cccnc3O[C@@H]3CO[C@@H]4CCO[C@@H]43)c2c1C [Example 2.10]	3.3 nM		96%
COc1c(N=S2(=O)CCCC2)cc2ncnc(Nc3ccc(F)cc3O[C@H](C)C(=O)NCC(F)(F)F)c2c1C [Example 2.52]	2.3 nM		100%
COc1c(N=S(C)(C)=O)cc2ncnc(Nc3ccc(F)cc3O[C@H](C)C(F)(F)F)c2c1C [Example 2.16]	3.5 nM		102%
COc1c(N=S2(=O)CCCC2)cc2ncnc(Nc3ccc(F)cc3O[C@@H]3CO[C@H]4[C@@H]3OC[C@H]4OC)c2c1C [Example 2.36]	1.8 nM	15 nM	
COc1c(N=S(C)(C)=O)cc2ncnc(Nc3ccc(F)cc3OC3CCOCC3)c2c1Cl [Example 2.34]	2 nM		94%
COc1c(N=S(C)(C)=O)cc2ncnc(Nc3cc4cn[nH]c4cc3OC(C)C)c2c1C [Example 2.20]	3.8 nM	57 nM	
COc1c(N=S2(=O)CCCC2)cc2ncnc(Nc3ccc(F)cc3O[C@H]3COC[C@@H]3O)c2c1C [Example 2.46]	2 nM	37 nM	
Cc1c(OCCCN2CCOCC2)c(N=S2(=O)CCC2)cc2ncnc(Nc3ccc(F)cc3O[C@H](C)C(F)(F)F)c12 [Example 2.15]	1.4 nM	42 nM	
COc1c(N=S2(=O)CCC2)cc2ncnc(Nc3ccc(F)cc3O[C@@H]3CO[C@H]4[C@@H]3OC[C@H]4O)c2c1C [Example 2.06]	1.2 nM	18 nM	
COc1c(N=S(C)(C)=O)cc2ncnc(Nc3ccc(F)cc3O[C@H](C)C(=O)N[C@@H](C)C(F)(F)F)c2c1C [Example 2.37]	4.1 nM		88%
COc1c(N=S2(=O)CCCCC2)cc2ncnc(Nc3ccc(F)cc3O[C@@H]3CO[C@@H]4CCO[C@@H]43)c2c1C [Example 2.08]	1.4 nM		107%
COc1c(N=S2(=O)CCC2)cc2ncnc(Nc3ccc(F)cc3O[C@H](C)C(=O)N[C@@H](C)C(F)(F)F)c2c1C [Example 2.53]	1.6 nM		105%
COc1c(N=S2(=O)CCCC2)cc2ncnc(Nc3ccc(F)cc3O[C@H](C)C(F)(F)F)c2c1C [Example 2.54]	1.6 nM		91%
COc1c(N=S(C)(C)=O)cc2ncnc(Nc3ccc(Cl)cc3O[C@H](C)C(=O)NCC(F)(F)F)c2c1C [Example 2.29]	2.6 nM		96%
